Measurements reported in US11655217B2, “Pyrazole MAGL inhibitors” (H. Lundbeck A/S, priority 2017, dated 2023).

How the values were obtained:
MAGL = MAGL (Mus musculus (Mouse), UniProt O35678); test: Mouse brain proteomes from inhibitor treated mice (oral gavage, sacrificed 4 h after administration, ABPP analysis); conditions: 5 mg/kg oral gavage
Method: (§1) Preparation of Mouse Brain Proteomes from Inhibitor Treated Mice.
(§2) Inhibitors were administered to wild-type C57Bl/6J by oral gavage in a vehicle of polyethylene glycol.

FAAH = FAAH (Mus musculus (Mouse), UniProt O08914); test: Mouse brain proteomes from inhibitor treated mice (oral gavage, sacrificed 4 h after administration, ABPP analysis), FAAH; conditions: 5 mg/kg oral gavage
Chain of FAAH (O08914 whole entry): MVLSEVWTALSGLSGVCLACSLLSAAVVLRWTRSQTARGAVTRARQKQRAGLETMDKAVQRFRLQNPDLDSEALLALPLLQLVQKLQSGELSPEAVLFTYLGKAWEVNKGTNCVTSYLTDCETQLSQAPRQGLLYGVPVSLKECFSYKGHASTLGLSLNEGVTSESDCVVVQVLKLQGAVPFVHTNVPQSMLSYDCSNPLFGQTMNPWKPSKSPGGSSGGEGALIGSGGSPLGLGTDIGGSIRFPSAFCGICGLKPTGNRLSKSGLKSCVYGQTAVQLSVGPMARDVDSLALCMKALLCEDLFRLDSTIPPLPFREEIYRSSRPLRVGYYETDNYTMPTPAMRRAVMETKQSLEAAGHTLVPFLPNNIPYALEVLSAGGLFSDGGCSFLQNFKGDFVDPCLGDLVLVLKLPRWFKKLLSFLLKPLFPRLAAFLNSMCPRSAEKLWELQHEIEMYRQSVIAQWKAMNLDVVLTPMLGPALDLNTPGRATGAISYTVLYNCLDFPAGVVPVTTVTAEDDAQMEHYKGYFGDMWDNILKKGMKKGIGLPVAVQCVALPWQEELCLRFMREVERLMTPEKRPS
Method: as §1, §2

Chain of MAGL (O35678 whole entry): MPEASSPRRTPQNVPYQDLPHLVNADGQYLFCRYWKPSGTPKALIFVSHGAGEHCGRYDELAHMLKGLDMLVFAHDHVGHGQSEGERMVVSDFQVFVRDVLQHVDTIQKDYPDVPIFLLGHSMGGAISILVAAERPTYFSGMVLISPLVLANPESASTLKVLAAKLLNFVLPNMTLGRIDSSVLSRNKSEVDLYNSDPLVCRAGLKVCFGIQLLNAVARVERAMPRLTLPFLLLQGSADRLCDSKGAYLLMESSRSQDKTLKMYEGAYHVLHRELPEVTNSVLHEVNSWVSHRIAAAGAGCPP

SMILES | MAGL % inh. 5 mg/kg (mouse) (MAGL) | FAAH % inh. 5 mg/kg (mouse) (FAAH)
O=C(O)c1ccn(C(=O)N2CCC3(CCCN3Cc3ccc(C(F)(F)F)cc3N3CCCC3)CC2)n1 [Example 93, 1-(1-(2-(pyrrolidin-1-yl)-4-(trifluoromethyl)benzyl)-1,8-diazaspiro[4.5]decane-8-carbonyl)-1H-pyrazole-3-carboxylic acid] | D (% inhibition is greater than or equal to 0% and less than 25%) | D (% inhibition is greater than or equal to 0% and less than 25%)
O=C(O)c1ccn(C(=O)N2CCN(Cc3cccc(Oc4ccc(F)cc4)c3)CC2)n1 [Example 51, 1-(4-(3-(4-fluorophenoxy)benzyl)piperazine-1-carbonyl)-1H-pyrazole-3-carboxylic acid] | D (% inhibition is greater than or equal to 0% and less than 25%) | D (% inhibition is greater than or equal to 0% and less than 25%)
O=C(O)c1ccn(C(=O)N2CCN(Cc3cccc(Cl)c3N3C4CCC3COC4)CC2)n1 [Example 212, 1-(4-(2-(3-oxa-8-azabicyclo[3.2.1]octan-8-yl)-3-chlorobenzyl)piper-azine-1-carbonyl)-1H-pyrazole-3-carboxylic acid] | D (% inhibition is greater than or equal to 0% and less than 25%) | D (% inhibition is greater than or equal to 0% and less than 25%)
CN(Cc1ccc(C(F)(F)F)cc1N1C2CCC1COC2)C1(C)CCN(C(=O)n2ccc(C(=O)O)n2)CC1 [Example 207, 1-(4-((2-(3-oxa-8-azabicyclo[3.2.1]octan-8-yl)-4-(trifluoromethyl)benzyl)(methyl)-amino)-4-methyl-piperidine-1-carbonyl)-1H-pyrazole-3-carboxylic acid] | D (% inhibition is greater than or equal to 0% and less than 25%) | D (% inhibition is greater than or equal to 0% and less than 25%)
O=C(O)c1ccn(C(=O)N2CCN(Cc3ccc(C(F)(F)F)c(-c4nccs4)c3)CC2)n1 [Example 8, 1-(4-(3-(Thiazol-2-yl)-4-(trifluoromethyl)benzyl)piperazine-1-carbonyl)-1H-pyrazole-3-carboxylic Acid] | D (% inhibition is greater than or equal to 0% and less than 25%) | D (% inhibition is greater than or equal to 0% and less than 25%)
O=C(O)c1ccn(C(=O)N2CCC3(CCN(Cc4cc(Cl)ccc4C(F)(F)F)C3)CC2)n1 [Example 43, 1-(2-(5-chloro-2-(trifluoromethyl)benzyl)-2,8-diazaspiro[4.5]decane-8-carbonyl)-1H-pyrazole-3-carboxylic acid] | D (% inhibition is greater than or equal to 0% and less than 25%) | D (% inhibition is greater than or equal to 0% and less than 25%)
O=C(O)c1ccn(C(=O)N2CCN(Cc3ccc(C(F)(F)F)cc3Cl)CC2)n1 [Example 91, 1-(4-(2-chloro-4-(trifluoromethyl)benzyl)piperazine-1-carbonyl)-1H-pyrazole-3-carboxylic acid] | D (% inhibition is greater than or equal to 0% and less than 25%) | D (% inhibition is greater than or equal to 0% and less than 25%)
O=C(O)c1ccn(C(=O)N2CCC3(CCN(Cc4cccc(Oc5ccc(Cl)cc5)c4)C3)CC2)n1 [Example 210, 1-(2-(3-(4-chlorophenoxy)benzyl)-2,8-diazaspiro[4.5]decane-8-carbonyl)-1H-pyrazole-3-carboxylic acid] | D (% inhibition is greater than or equal to 0% and less than 25%) | D (% inhibition is greater than or equal to 0% and less than 25%)
O=C(O)c1ccn(C(=O)N2CCN(Cc3ccc(C(F)(F)F)cc3N3CC4COCC4C3)CC2)n1 (stereo not drawn) [Example 106, 1-(4-(2-(tetrahydro-1H-furo[3,4-c]pyrrol-5(3H)-yl)-4-(trifluoromethyl)benzyl)piperazine-1-carbonyl)-1H-pyrazole-3-carboxylic acid] | D (% inhibition is greater than or equal to 0% and less than 25%) | D (% inhibition is greater than or equal to 0% and less than 25%)
